Data as given in PubChem BioAssay (NCI).
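These data come from cells grown in 96-well plates and exposed to compound for 48 hours at five concentrations. TGI: total growth inhibition.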

These compounds were tested on SR leukemia (assay: NCI-60 cell line screen, 48 h).

| Structure (SMILES) | TGI |
| --- | --- |
| O=C(C(=O)N1CCc2ccccc21)c1c[nH]c2ccccc12 | > 10 µM |
| CC(=O)N(C(=O)CC(=O)N/N=C\c1ccc(Br)c(N(CCC#N)CCC#N)c1)c1ccc(Cl)cc1 | > 100 µM |
| COc1ccc(CCNC2=CC(=O)c3ncccc3C2=O)cc1OC | > 79.8 µM |
| CC1(C)OCC2OC3(c4nc(C#N)c(N)o4)OC(C)(C)OC3C2O1 (configuration not stated) | > 100 µM |
| CCC1OC2C(CC=C(C)C)=C3OC(C)(O)C(C)(CC)C(OC(=O)c4ccccc4)C3=C3OC(=O)C=C1C32 (configuration not stated) | > 100 µM |
| CN1CCOC1(C)CO (configuration not stated) | > 100 µM |
| COn1cc(C=O)c2ccccc21 | > 71.4 µM |
| C=CCNC1=C2C[C@@H](C)C[C@@H](OC)[C@@H](OC(=O)CCCN)[C@H](C)/C=C(\C)[C@@H](OC(N)=O)[C@H](OC)/C=C\C=C(/C)C(=O)NC(=CC1=O)C2=O | > 79 µM |
| O=C1NC(=O)C(c2c[nH]c3cc(Br)ccc23)=C1c1cn(C(c2ccccc2)(c2ccccc2)c2ccccc2)cn1 | 32.3 µM |
| CC(C)=CCS(=O)c1ccccc1NC1=CC(=O)CC(C)(C)C1 (configuration not stated) | > 100 µM |
| COC(=O)C1=C(C)NC(C)=C(C(=O)OC)C1c1ccc(/[N+]([O-])=C/c2ccccc2)cc1 | 80 µM |
| O=C(O)c1nc(-c2ccccn2)c(-c2ccccn2)nc1C(=O)O | 9.91 µM |
| CC1(C#N)CC(C)(C)C(/C=C2/CC(C)(C)C(/C=C3/OC(=N)CC3(C)C)=N2)=N1 (configuration not stated) | > 100 µM |
| C#CCn1ncc2c(SCc3ccccc3)ncnc21 | > 100 µM |
| CCOC(=O)CC1c2ccc(O)cc2OC(=O)C1c1ccc([N+](=O)[O-])cc1 (configuration not stated) | 77.5 µM |

Each compound was assayed on U251 CNS (assay: NCI-60 cell line screen, 48 h).

| Structure (SMILES) | TGI |
| --- | --- |
| O=C(C(=O)N1CCc2ccccc21)c1c[nH]c2ccccc12 | > 10 µM |
| CC(=O)N(C(=O)CC(=O)N/N=C\c1ccc(Br)c(N(CCC#N)CCC#N)c1)c1ccc(Cl)cc1 | > 100 µM |
| COc1ccc(CCNC2=CC(=O)c3ncccc3C2=O)cc1OC | 14 µM |
| CC1(C)OCC2OC3(c4nc(C#N)c(N)o4)OC(C)(C)OC3C2O1 (configuration not stated) | > 100 µM |
| CCC1OC2C(CC=C(C)C)=C3OC(C)(O)C(C)(CC)C(OC(=O)c4ccccc4)C3=C3OC(=O)C=C1C32 (configuration not stated) | > 100 µM |
| CN1CCOC1(C)CO (configuration not stated) | > 100 µM |
| COn1cc(C=O)c2ccccc21 | > 100 µM |
| C=CCNC1=C2C[C@@H](C)C[C@@H](OC)[C@@H](OC(=O)CCCN)[C@H](C)/C=C(\C)[C@@H](OC(N)=O)[C@H](OC)/C=C\C=C(/C)C(=O)NC(=CC1=O)C2=O | > 50.4 µM |
| O=C1NC(=O)C(c2c[nH]c3cc(Br)ccc23)=C1c1cn(C(c2ccccc2)(c2ccccc2)c2ccccc2)cn1 | 24.7 µM |
| CC(C)=CCS(=O)c1ccccc1NC1=CC(=O)CC(C)(C)C1 (configuration not stated) | 2.42 µM |
| COC(=O)C1=C(C)NC(C)=C(C(=O)OC)C1c1ccc(/[N+]([O-])=C/c2ccccc2)cc1 | > 100 µM |
| O=C(O)c1nc(-c2ccccn2)c(-c2ccccn2)nc1C(=O)O | 13.3 µM |
| CC1(C#N)CC(C)(C)C(/C=C2/CC(C)(C)C(/C=C3/OC(=N)CC3(C)C)=N2)=N1 (configuration not stated) | > 100 µM |
| C#CCn1ncc2c(SCc3ccccc3)ncnc21 | > 100 µM |
| CCOC(=O)CC1c2ccc(O)cc2OC(=O)C1c1ccc([N+](=O)[O-])cc1 (configuration not stated) | > 100 µM |

The compounds below were run on HOP-92 NSCLC (assay: NCI-60 cell line screen, 48 h).

| Structure (SMILES) | TGI |
| --- | --- |
| O=C(C(=O)N1CCc2ccccc21)c1c[nH]c2ccccc12 | > 10 µM |
| CC(=O)N(C(=O)CC(=O)N/N=C\c1ccc(Br)c(N(CCC#N)CCC#N)c1)c1ccc(Cl)cc1 | > 100 µM |
| COc1ccc(CCNC2=CC(=O)c3ncccc3C2=O)cc1OC | 35.8 µM |
| CC1(C)OCC2OC3(c4nc(C#N)c(N)o4)OC(C)(C)OC3C2O1 (configuration not stated) | > 100 µM |
| CCC1OC2C(CC=C(C)C)=C3OC(C)(O)C(C)(CC)C(OC(=O)c4ccccc4)C3=C3OC(=O)C=C1C32 (configuration not stated) | > 100 µM |
| CN1CCOC1(C)CO (configuration not stated) | > 100 µM |
| COn1cc(C=O)c2ccccc21 | > 100 µM |
| C=CCNC1=C2C[C@@H](C)C[C@@H](OC)[C@@H](OC(=O)CCCN)[C@H](C)/C=C(\C)[C@@H](OC(N)=O)[C@H](OC)/C=C\C=C(/C)C(=O)NC(=CC1=O)C2=O | 29.3 µM |
| O=C1NC(=O)C(c2c[nH]c3cc(Br)ccc23)=C1c1cn(C(c2ccccc2)(c2ccccc2)c2ccccc2)cn1 | 30.3 µM |
| CC(C)=CCS(=O)c1ccccc1NC1=CC(=O)CC(C)(C)C1 (configuration not stated) | > 100 µM |
| COC(=O)C1=C(C)NC(C)=C(C(=O)OC)C1c1ccc(/[N+]([O-])=C/c2ccccc2)cc1 | 35.3 µM |
| O=C(O)c1nc(-c2ccccn2)c(-c2ccccn2)nc1C(=O)O | 26.9 µM |
| CC1(C#N)CC(C)(C)C(/C=C2/CC(C)(C)C(/C=C3/OC(=N)CC3(C)C)=N2)=N1 (configuration not stated) | 39.9 µM |
| C#CCn1ncc2c(SCc3ccccc3)ncnc21 | > 100 µM |
| CCOC(=O)CC1c2ccc(O)cc2OC(=O)C1c1ccc([N+](=O)[O-])cc1 (configuration not stated) | 63.2 µM |

Each compound was assayed on SF-268 CNS (assay: NCI-60 cell line screen, 48 h).

| Structure (SMILES) | TGI |
| --- | --- |
| O=C(C(=O)N1CCc2ccccc21)c1c[nH]c2ccccc12 | > 10 µM |
| CC(=O)N(C(=O)CC(=O)N/N=C\c1ccc(Br)c(N(CCC#N)CCC#N)c1)c1ccc(Cl)cc1 | > 100 µM |
| COc1ccc(CCNC2=CC(=O)c3ncccc3C2=O)cc1OC | 34.9 µM |
| CC1(C)OCC2OC3(c4nc(C#N)c(N)o4)OC(C)(C)OC3C2O1 (configuration not stated) | > 100 µM |
| CCC1OC2C(CC=C(C)C)=C3OC(C)(O)C(C)(CC)C(OC(=O)c4ccccc4)C3=C3OC(=O)C=C1C32 (configuration not stated) | > 100 µM |
| CN1CCOC1(C)CO (configuration not stated) | > 100 µM |
| COn1cc(C=O)c2ccccc21 | > 100 µM |
| C=CCNC1=C2C[C@@H](C)C[C@@H](OC)[C@@H](OC(=O)CCCN)[C@H](C)/C=C(\C)[C@@H](OC(N)=O)[C@H](OC)/C=C\C=C(/C)C(=O)NC(=CC1=O)C2=O | 30.7 µM |
| O=C1NC(=O)C(c2c[nH]c3cc(Br)ccc23)=C1c1cn(C(c2ccccc2)(c2ccccc2)c2ccccc2)cn1 | 33.1 µM |
| CC(C)=CCS(=O)c1ccccc1NC1=CC(=O)CC(C)(C)C1 (configuration not stated) | > 100 µM |
| COC(=O)C1=C(C)NC(C)=C(C(=O)OC)C1c1ccc(/[N+]([O-])=C/c2ccccc2)cc1 | > 100 µM |
| O=C(O)c1nc(-c2ccccn2)c(-c2ccccn2)nc1C(=O)O | 24.1 µM |
| CC1(C#N)CC(C)(C)C(/C=C2/CC(C)(C)C(/C=C3/OC(=N)CC3(C)C)=N2)=N1 (configuration not stated) | > 100 µM |
| C#CCn1ncc2c(SCc3ccccc3)ncnc21 | > 100 µM |
| CCOC(=O)CC1c2ccc(O)cc2OC(=O)C1c1ccc([N+](=O)[O-])cc1 (configuration not stated) | > 100 µM |

These compounds were tested on MALME-3M melanoma (assay: NCI-60 cell line screen, 48 h).

| Structure (SMILES) | TGI |
| --- | --- |
| O=C(C(=O)N1CCc2ccccc21)c1c[nH]c2ccccc12 | > 10 µM |
| CC(=O)N(C(=O)CC(=O)N/N=C\c1ccc(Br)c(N(CCC#N)CCC#N)c1)c1ccc(Cl)cc1 | > 100 µM |
| COc1ccc(CCNC2=CC(=O)c3ncccc3C2=O)cc1OC | 2.03 µM |
| CC1(C)OCC2OC3(c4nc(C#N)c(N)o4)OC(C)(C)OC3C2O1 (configuration not stated) | > 100 µM |
| CCC1OC2C(CC=C(C)C)=C3OC(C)(O)C(C)(CC)C(OC(=O)c4ccccc4)C3=C3OC(=O)C=C1C32 (configuration not stated) | > 100 µM |
| CN1CCOC1(C)CO (configuration not stated) | > 100 µM |
| COn1cc(C=O)c2ccccc21 | > 100 µM |
| C=CCNC1=C2C[C@@H](C)C[C@@H](OC)[C@@H](OC(=O)CCCN)[C@H](C)/C=C(\C)[C@@H](OC(N)=O)[C@H](OC)/C=C\C=C(/C)C(=O)NC(=CC1=O)C2=O | 27.8 µM |
| O=C1NC(=O)C(c2c[nH]c3cc(Br)ccc23)=C1c1cn(C(c2ccccc2)(c2ccccc2)c2ccccc2)cn1 | 56.8 µM |
| CC(C)=CCS(=O)c1ccccc1NC1=CC(=O)CC(C)(C)C1 (configuration not stated) | > 100 µM |
| COC(=O)C1=C(C)NC(C)=C(C(=O)OC)C1c1ccc(/[N+]([O-])=C/c2ccccc2)cc1 | 31.3 µM |
| O=C(O)c1nc(-c2ccccn2)c(-c2ccccn2)nc1C(=O)O | 7.85 µM |
| CC1(C#N)CC(C)(C)C(/C=C2/CC(C)(C)C(/C=C3/OC(=N)CC3(C)C)=N2)=N1 (configuration not stated) | 20 µM |
| C#CCn1ncc2c(SCc3ccccc3)ncnc21 | > 100 µM |
| CCOC(=O)CC1c2ccc(O)cc2OC(=O)C1c1ccc([N+](=O)[O-])cc1 (configuration not stated) | 70.3 µM |

Each compound was assayed on SF-539 CNS (assay: NCI-60 cell line screen, 48 h).

| Structure (SMILES) | TGI |
| --- | --- |
| O=C(C(=O)N1CCc2ccccc21)c1c[nH]c2ccccc12 | > 10 µM |
| CC(=O)N(C(=O)CC(=O)N/N=C\c1ccc(Br)c(N(CCC#N)CCC#N)c1)c1ccc(Cl)cc1 | > 100 µM |
| COc1ccc(CCNC2=CC(=O)c3ncccc3C2=O)cc1OC | 4.73 µM |
| CC1(C)OCC2OC3(c4nc(C#N)c(N)o4)OC(C)(C)OC3C2O1 (configuration not stated) | > 100 µM |
| CCC1OC2C(CC=C(C)C)=C3OC(C)(O)C(C)(CC)C(OC(=O)c4ccccc4)C3=C3OC(=O)C=C1C32 (configuration not stated) | 54.1 µM |
| CN1CCOC1(C)CO (configuration not stated) | > 100 µM |
| COn1cc(C=O)c2ccccc21 | > 100 µM |
| C=CCNC1=C2C[C@@H](C)C[C@@H](OC)[C@@H](OC(=O)CCCN)[C@H](C)/C=C(\C)[C@@H](OC(N)=O)[C@H](OC)/C=C\C=C(/C)C(=O)NC(=CC1=O)C2=O | 29.9 µM |
| O=C1NC(=O)C(c2c[nH]c3cc(Br)ccc23)=C1c1cn(C(c2ccccc2)(c2ccccc2)c2ccccc2)cn1 | 37.9 µM |
| CC(C)=CCS(=O)c1ccccc1NC1=CC(=O)CC(C)(C)C1 (configuration not stated) | > 100 µM |
| COC(=O)C1=C(C)NC(C)=C(C(=O)OC)C1c1ccc(/[N+]([O-])=C/c2ccccc2)cc1 | > 100 µM |
| O=C(O)c1nc(-c2ccccn2)c(-c2ccccn2)nc1C(=O)O | 20.6 µM |
| CC1(C#N)CC(C)(C)C(/C=C2/CC(C)(C)C(/C=C3/OC(=N)CC3(C)C)=N2)=N1 (configuration not stated) | > 100 µM |
| C#CCn1ncc2c(SCc3ccccc3)ncnc21 | > 100 µM |
| CCOC(=O)CC1c2ccc(O)cc2OC(=O)C1c1ccc([N+](=O)[O-])cc1 (configuration not stated) | > 100 µM |

The compounds below were run on KM12 colon (assay: NCI-60 cell line screen, 48 h).

| Structure (SMILES) | TGI |
| --- | --- |
| O=C(C(=O)N1CCc2ccccc21)c1c[nH]c2ccccc12 | > 10 µM |
| CC(=O)N(C(=O)CC(=O)N/N=C\c1ccc(Br)c(N(CCC#N)CCC#N)c1)c1ccc(Cl)cc1 | > 100 µM |
| COc1ccc(CCNC2=CC(=O)c3ncccc3C2=O)cc1OC | > 75.2 µM |
| CC1(C)OCC2OC3(c4nc(C#N)c(N)o4)OC(C)(C)OC3C2O1 (configuration not stated) | > 100 µM |
| CCC1OC2C(CC=C(C)C)=C3OC(C)(O)C(C)(CC)C(OC(=O)c4ccccc4)C3=C3OC(=O)C=C1C32 (configuration not stated) | > 100 µM |
| CN1CCOC1(C)CO (configuration not stated) | > 100 µM |
| COn1cc(C=O)c2ccccc21 | > 56.5 µM |
